This note sets out measurements from patent publication US6703388B2, “Nitrogen-containing tricyclic compounds and drugs containing the same” (Eisai Co., Ltd., priority 1996, dated 2004).

The subject of assay [1] is RBL-2H3 cells. The experiment in a line: Inhibition of serotonin liberation from IgE-sensitized RBL-2H3 cells after antigen stimulation. Type of assay: cell-based, rat. The source says:
IgE-sensitized RBL-2H3 cells (i.e., a cell line originating in rat cells) release and produce not only histamine and serotonin but also cytokines such as TNF α and prostaglandins which are inflammatory mediators after stimulation with IgE sepecific antibody. In this experimental system, inhibitory effects on various mediators release were examined by using serotonin as an indication.
The cells were beforehand labeled with [^3H]-labeled serotonin and, at the same time, sensitized with the IgE antibody. After incubating with the compounds of the present invention, the cells were stimulated with the specific antigen. Then the inhibitory activity of each compound was calculated from the amount of the [^3H]-labeled serotonin thus liberated into the medium and the amount of [^3H]-labeled serotonin liberated when no compound of the present invention was added.

Assay [2] deals with human basophils. Kind of assay: Inhibition of mediator (histamine, peptide leukotriene) liberation from human basophils stimulated with mite antigen. The class given is cell-based. As to conditions: enzyme immunoassay. As to the method:
6 ml of 6% dextran (for separating leukocytes, having a high molecular weight) was added to 20 ml of heparinized blood. After stirring well, the resulting mixture was allowed to stand at 37° C. for 30 min and thus erythrocytes were precipitated. The upper layer was taken up and phosphate buffered saline (D-PBS) was added thereto followed by centrifugation at 185 g for 8 minutes to give a crude leukocyte fraction. These cells were subjected to hypotonic hematolysis and then suspended in D-PBS(+) containing 0.1%-BSA. The resulting suspension was used in the subsequent experiment as the leukocyte fraction containing basophils. 0.4 ml of this cell suspension was preliminarily heated to 37° C. for 5 min and then 0.05 ml of a specimen solution was added thereto followed by a pretreatment at 37° C. for 15 min. Next, 0.05 ml of a mite antigen solution was added thereto to induce an antigen-antibody reaction. After 10 min, the reaction was ceased by ice-cooling. Then the reaction mixture was centrifuged at 185 g for 10 min and histamine and peptide leukotrienes in the resulting supernatant were determined by using enzyme immunoassay kits. From the results of the assay, the activities of the acridone derivatives of inhibiting the liberation of histamine and peptide leukotriene were determined.

[3] abbreviates: Rattus norvegicus, [3H]-serotonin release, IgE-sensitized RBL-2H3 cells, antigen stimulation, read-out: IC50 (μM) in serotonin liberation from RBL-2H3 cells.
[4] abbreviates: Rattus norvegicus, RBL-2H3, read-out: IC50 (μM) in serotonin liberation from RBL-2H3 cells.
Setting [5] is: histamine, read-out: IC50 (μM) in mediator liberation from human basophils: histamine.
The mark [6] stands for this setting: peptide leukotriene, read-out: IC50 (μM) in mediator liberation from human basophils: leukotriene.

Read-outs that look alike come from different tables or passages of the source.

`Cc1ccc2c(c1C)N(CCCNCc1ccc(Cl)cc1Cl)c1cc(CCO)ccc1[S+]2[O-]` (stereo not drawn) [Example 93]: the IC50 in assay [1] (setting [3]) turned out to be 3 µM. As to `Cc1ccc2c(=NOCCC(N)=O)c3ccccc3n(CCCNCc3ccccc3)c2c1C` [Example 251], in assay [1] (setting [3]), the IC50 was 5 µM.

Consider `Cc1ccc2c(c1C)N(CCCN)c1cc(Br)ccc1[S+]2[O-]` (stereo not drawn) [Example 10], for which the IC50 in assay [1] (setting [3]) stood at 3 µM. For the molecule `Cc1ccc2c(c1C)N(CCCN(CC(=O)O)Cc1ccccc1)c1ccccc1[S+]2[O-]` (stereo not drawn) [Example 109], the IC50 in assay [1] (setting [3]) was 3 µM.

On to `Cc1ccc2c(c1C)N(Cc1cccc(CNCc3ccccc3)n1)c1ccccc1S2` [Example 6], for which the IC50 in assay [1] (setting [3]) was 10 µM. Turning to `Cc1ccc2c(c1C)N(CCCN(C)Cc1cc(Cl)cc(Cl)c1O)c1ccccc1[S+]2[O-]` (stereo not drawn) [Example 172], in assay [1] (setting [3]), the IC50 came to 3 µM. On to `Cc1ccc2c(c1C)N(CCCNCc1nc3ccccc3s1)c1ccccc1[S+]2[O-]` (stereo not drawn) [Example 68], for which, in assay [1] (setting [3]), the IC50 is 4 µM.

`Cc1ccc2c(=NOCCC(=O)N(C)C)c3ccccc3n(CCCNCc3ccccc3)c2c1C` [Example 244]: the IC50 in assay [1] (setting [3]) turned out to be 3 µM. With `Cc1ccc2c(c1C)N(CCCN(CC(=O)O)Cc1ccccc1O)c1ccccc1[S+]2[O-]` (stereo not drawn) [Example 135], the IC50 in assay [1] (setting [3]) came out at 2 µM.

Regarding `Cc1ccc2c(c1C)N(CCCN1CCC(N(C)C)CC1)c1ccccc1[S+]2[O-]` (stereo not drawn) [Example 107], the IC50 in assay [1] (setting [3]) came out at 2 µM. Consider `Cc1ccc2c(c1C)N(CCCN(CC#N)CC#N)c1ccccc1[S+]2[O-]` (stereo not drawn) [Example 131], for which the IC50 in assay [1] (setting [3]) was found to be 3 µM.

With `Cc1ccc2c(c1C)N(CCN1CCC(O)(c3ccccc3)CC1)c1ccccc1[S+]2[O-]` (stereo not drawn) [Example 192], the IC50 in assay [1] (setting [4]) was 5 µM. Take `COc1cc(CNCCN2c3ccccc3[S+]([O-])c3ccc(C)c(C)c32)cc(OC)c1O` (stereo not drawn) [Example 149]: the IC50 in assay [1] (setting [3]) was 8 µM. On to `Cc1ccc2c(c1C)N(CCCNC(C(=O)O)c1ccccc1)c1ccccc1[S+]2[O-]` (stereo not drawn) [Example 133], for which the IC50 in assay [1] (setting [3]) was 1 µM.

On to `Cc1ccc2c(c1C)N(CCCNCc1ncco1)c1ccccc1[S+]2[O-]` (stereo not drawn) [Example 72], for which, in assay [1] (setting [3]), the IC50 is 8 µM. For `Cc1ccc2c(c1C)N(CCCNCc1cccc(C(=O)O)c1O)c1ccccc1[S+]2[O-]` (stereo not drawn) [Example 31], in assay [1] (setting [4]), the IC50 came to 0.5 µM. Consider `Cc1ccc2c(=NOCCc3ccccn3)c3ccccc3n(CCCN)c2c1C` [Example 212], for which the IC50 in assay [1] (setting [3]) came out at 6 µM.

In the case of `COC(=O)Cc1cccc2c1[S+]([O-])c1ccc(C)c(C)c1N2CCCNCc1ccccc1` (stereo not drawn) [Example 261], the IC50 in assay [1] (setting [3]) came to 10 µM.

In the case of `Cc1ccc2c(c1C)N(CCCNCc1ncc[nH]1)c1ccccc1[S+]2[O-]` (stereo not drawn) [Example 63], the IC50 in assay [1] (setting [3]) is 3 µM. `Cc1ccc2c(=NOCc3ccccn3)c3ccccc3n(CCCN)c2c1C` [Example 220]: the IC50 in assay [1] (setting [3]) worked out at 6 µM. Turning to `Cc1ccc2c(c1C)N(CCNCc1cc(C)c(O)c(C)c1)c1ccccc1[S+]2[O-]` (stereo not drawn) [Example 148], in assay [1] (setting [3]), the IC50 is 8 µM. For `Cc1ccc2c(c1C)N(CCCN1CCN(C(CO)c3ccccc3)CC1)c1ccccc1[S+]2[O-]` (stereo not drawn) [Example 117], the IC50 in assay [1] (setting [3]) amounted to 2 µM.

Regarding `CCCON=c1c2ccccc2n(CCCNCc2ccccc2)c2c(C)c(C)ccc12` [Example 232], the IC50 in assay [1] (setting [3]) came to 10 µM. In the case of `Cc1ccc2c(=NOCC(C)(C)C(=O)O)c3ccccc3n(CCCNCc3ccccc3)c2c1C` [Example 248], the IC50 in assay [1] (setting [3]) came to 10 µM. Regarding `Cc1ccc2c(c1C)N(CCCN)c1ccccc1C(=O)N2C` [Example 258], the IC50 in assay [1] (setting [3]) is 6 µM.

As to `Cc1ccc2c(=NOC(C)C#N)c3ccccc3n(CCCNCc3ccccc3)c2c1C` (stereo not drawn) [Example 253], the IC50 in assay [1] (setting [3]) is 10 µM. For the molecule `CCON=c1c2ccccc2n(CCCNC(C)c2ccccc2)c2c(C)c(C)ccc12` (stereo not drawn) [Example 255], the IC50 in assay [1] (setting [3]) came to 8 µM. Turning to `CO/N=c1\c2ccccc2n(CCCN)c2c(C)c(C)ccc12` [Example 208, (E,Z)-3,4-Dimethyl-10-(3-aminopropyl)-9-acridoneoxime-O-methyl Ether], the IC50 in assay [1] ([3H]-serotonin release, IgE-sensitized RBL-2H3 cells, antigen stimulation, read-out: IC50 (μM) in serotonin liberation from RBL-2H3 cells) is 3 µM.

For the molecule `Cc1ccccc1CNCCCn1c2ccccc2c(=NOCCC(=O)O)c2ccc(C)c(C)c21` [Example 249], the IC50 in assay [1] (setting [3]) was determined as 10 µM.

Turning to `Cc1ccc2c(c1C)N(CCCNCC#N)c1ccccc1[S+]2[O-]` (stereo not drawn) [Example 130], in assay [1] (setting [3]), the IC50 was 3 µM.

With `Cc1ccc2c(=NO)c3ccccc3n(CCCNCc3ccccc3)c2c1C` [Example 230], the IC50 in assay [1] (setting [3]) came out at 6 µM.

Regarding `COCOc1cccnc1CNCCN1c2ccccc2[S+]([O-])c2ccc(C)c(C)c21` (stereo not drawn) [Example 160], the IC50 in assay [1] (setting [3]) came out at 2 µM. Turning to `Cc1ccc2c(c1C)N(Cc1cccc(CNCc3ncc[nH]3)n1)c1ccccc1S2` [Example 7], the IC50 in assay [1] (setting [3]) worked out at 8 µM. Turning to `Cc1ccc2c(c1C)N(CCN1CCC(O)(c3ccccc3)CC1)c1ccccc1S2(=O)=O` [Example 199], the IC50 in assay [1] (setting [4]) stood at 10 µM. `Cc1ccc2c(c1C)N(CCCNc1ccccc1O)c1ccccc1[S+]2[O-]` (stereo not drawn) [Example 116]: in assay [1] (setting [3]), the IC50 worked out at 10 µM. For `CCC/C=C1/c2ccccc2N(CCCNCc2ccccc2)c2c1ccc(C)c2C` [Example 207], the IC50 in assay [1] (setting [3]) turned out to be 15 µM. On the same count and under the same terms, next, `Cc1ccc2c(c1C)N(CCCNCc1[nH]cnc1C)c1ccccc1[S+]2[O-]` (stereo not drawn) [Example 74]: 2 µM; `Cc1ccc2c(c1C)N(CCCNCc1ccc(F)cc1F)c1cc(CCO)ccc1[S+]2[O-]` (stereo not drawn) [Example 95]: 3 µM.

As for `Cc1ccc2c(=NOC(C)C)c3ccccc3n(CCCNCc3ccccc3)c2c1C` [Example 243], the IC50 in assay [1] (setting [3]) worked out at 6 µM.

Consider `COc1ccc(O)c(CNCCCN2c3ccccc3[S+]([O-])c3ccc(C)c(C)c32)c1O` (stereo not drawn) [Example 38], for which the IC50 in assay [1] (setting [3]) was determined as 8 µM. Turning to `Cc1ccc2c(c1C)N(CCCN)c1cc(CCO)ccc1[S+]2[O-]` (stereo not drawn) [Example 9], the IC50 in assay [1] (setting [3]) was under 1 µM. In the case of `Cc1ccc2c(c1C)N(CCCNCc1ccccn1)c1ccccc1[S+]2[O-]` (stereo not drawn) [Example 70], in assay [1] (setting [3]), the IC50 was found to be 2 µM.

As to `Cc1ccc2c(c1C)N(CCCN1CCOCC1)c1ccccc1[S+]2[O-]` (stereo not drawn) [Example 103, 1,2-Dimethyl-10-[3-(4-morpholino)propyl]phenothiazine-5Oxide], the IC50 in assay [1] (setting [3]) is under 3 µM.

On to `Cc1ccc2c(c1C)N(CCCNCc1nccnc1Cl)c1ccccc1[S+]2[O-]` (stereo not drawn) [Example 75], for which the IC50 in assay [1] (setting [3]) was 6 µM. Regarding `Cc1ccc2c(c1C)N(CCCN1CCN(Cc3ccccn3)CC1)c1ccccc1[S+]2[O-]` (stereo not drawn) [Example 112], in assay [1] (setting [3]), the IC50 was 1 µM. On the same count and under the same terms, then `CCOC(=O)/C(C)=C/c1cc(OC)c(CNCCCN2c3ccccc3[S+]([O-])c3ccc(C)c(C)c32)s1` (stereo not drawn) [Example 76], with 3 µM; and `Cc1ccc2c(c1C)N(CCN1CCN(Cc3ccccc3)CC1)c1ccccc1[S+]2[O-]` (stereo not drawn) [Example 191, 1,2-Dimethyl-10-[2-(4-benzylpiperazin-1-yl)ethyl]-phenothiazine-5-oxide], with 3 µM; and `Cc1ccc2c(c1C)N(CCCNCc1cc(Br)cc(Cl)c1O)c1ccccc1[S+]2[O-]` (stereo not drawn) [Example 41], with 5 µM. For `Cc1cccc(CNCCCN2c3ccccc3[S+]([O-])c3ccc(C)c(C)c32)n1` (stereo not drawn) [Example 71], the IC50 in assay [1] (setting [3]) came to 8 µM.

As to `Cc1ccc2c(=NOCCC(=O)O)c3ccccc3n(CCCN(C)Cc3ccccc3)c2c1C` [Example 254], the IC50 in assay [1] (setting [3]) was found to be 12 µM. In the case of `Cc1ccc2c(c1C)N(CCCN)c1ccccc1S2` [Example 1, 1,2-Dimethyl-10-(3-aminopropyl)phenothiazine], the IC50 in assay [1] (setting [3]) turned out to be 5 µM. Turning to `Cc1ccc2c(=NOCC(=O)O)c3ccccc3n(CCCN)c2c1C` [Example 215], in assay [1] (setting [3]), the IC50 turned out to be 3 µM. With `Cc1ccc2c(c1C)N(Cc1cccc(CN)n1)c1ccccc1S2` [Example 3], in assay [1] (setting [3]), the IC50 was 10 µM.

On to `COC(=O)c1cccc2c1[S+]([O-])c1ccc(C)c(C)c1N2CCCNCc1ccccc1` (stereo not drawn) [Example 91], for which the IC50 in assay [1] (setting [3]) is 5 µM.

Take `Cc1ccc2c(=NO)c3ccccc3n(CCCN)c2c1C` [Example 209]: in assay [1] (setting [3]), the IC50 stood at 15 µM. With `Cc1ccc2c(c1C)N(CCCN1CCC(O)CC1)c1ccccc1[S+]2[O-]` (stereo not drawn) [Example 106], the IC50 in assay [1] (setting [3]) was found to be 2 µM. For the molecule `Cc1ccc2c(c1C)N(CCCNCc1cc(Br)cc(F)c1O)c1ccccc1[S+]2[O-]` (stereo not drawn) [Example 40], in assay [1] (setting [3]), the IC50 was determined as 5 µM.

As to `Cc1ccc2c(c1C)N(CCNc1ccccc1O)c1ccccc1[S+]2[O-]` (stereo not drawn) [Example 194], the IC50 in assay [1] (setting [3]) was determined as 10 µM. Regarding `Cc1ccc2c(=NOCCC(=O)O)c3ccccc3n(CCCN)c2c1C` [Example 216], the IC50 in assay [1] (setting [3]) came out at 3 µM. For the molecule `Cc1ccc2c(c1C)N(CCCN(C)Cc1ccccc1O)c1cc(C(F)(F)F)ccc1[S+]2[O-]` (stereo not drawn) [Example 187], the IC50 in assay [2] (setting [5]) lay in the range of 10 to 30 µM; in assay [2] (setting [6]) it was 3 to 10 µM.

Turning to `Cc1ccc2c(c1C)N(CCCN(C)Cc1cccc(Cl)c1O)c1ccccc1[S+]2[O-]` (stereo not drawn) [Example 167], the results for the IC50 in assay [2] (setting [5]) and in assay [2] (setting [6]) were 10 µM and 3 µM, respectively.
